Reference: patent US20210169911A1, “PURINE AND PYRIMIDINE NUCLEOTIDES AS ECTO-5'-NUCLEOTIDASE INHIBITORS” (The United States of America,as represented by the …, priority 2018, published 2021)
Counter-ions that a name gives are not always drawn. Like-named read-outs stand apart in the source and are kept apart here.

Legend:
[1] = target: T1, recombinant soluble rat CD73 (Rattus norvegicus, UniProt P21588); assay: Radiometric rat ecto-5′-nucleotidase (CD73) assay with [3H]AMP; conditions: for % inhibition at indicated concentration, rat CD73: initial screening concentration 1 μM
T1 sequence (P21588 29-551 limits assumed): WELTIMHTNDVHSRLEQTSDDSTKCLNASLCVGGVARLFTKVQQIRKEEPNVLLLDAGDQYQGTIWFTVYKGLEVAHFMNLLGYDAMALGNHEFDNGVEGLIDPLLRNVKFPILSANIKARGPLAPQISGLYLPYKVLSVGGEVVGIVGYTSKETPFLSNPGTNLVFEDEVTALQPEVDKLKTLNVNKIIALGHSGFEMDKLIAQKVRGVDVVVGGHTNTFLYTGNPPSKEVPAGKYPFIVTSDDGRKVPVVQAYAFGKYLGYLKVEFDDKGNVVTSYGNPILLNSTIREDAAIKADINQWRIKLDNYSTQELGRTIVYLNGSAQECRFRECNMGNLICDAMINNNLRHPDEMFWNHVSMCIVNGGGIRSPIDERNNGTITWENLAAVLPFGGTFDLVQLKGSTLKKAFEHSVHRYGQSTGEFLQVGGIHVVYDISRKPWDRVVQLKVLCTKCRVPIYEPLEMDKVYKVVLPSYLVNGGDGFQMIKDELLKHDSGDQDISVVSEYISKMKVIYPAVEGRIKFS
Procedure: After the enzymatic reaction, the substrate was separated from its product [2,8-^3H]adenosine by precipitation with lanthanum chloride followed by filtration through glass fiber filters (34). […] Ki values were calculated from the obtained IC50 values using the Cheng-Prusoff equation (6,7).
The assay was performed as previously described (41) using recombinant rat CD73 expressed in Sf9 insect cells (33). […] The mixture was incubated for 25 min at 37° C. The reaction was stopped by adding 500 μL of ice-cooled precipitation buffer containing 100 mM aqueous lanthanum chloride and 100 mM aqueous sodium acetate solution (pH 4.0). After 30 min, the precipitation was filtered through GF/B glass fiber filters (M-48, Brandel, Gaithersburg, Md., USA). After washing three times, 4 mL of the scintillation cocktail ULTIMA Gold XR was added and then quantified by scintillation counting (TRICARB 2900 TR, Packard/PerkinElmer). Three separate inhibition assays were performed in triplicate, concentration-response curves were fitted, and Ki values were calculated.
The assay was performed essentially as previously described.^D Stock solutions (10 mM) of the compounds were prepared in demineralized water and further dilutions were performed in assay reaction buffer (25 mM Tris, 140 mM sodium chloride, 25 mM sodium dihydrogen phosphate, pH 7.4). 10 μL of the inhibitor solution were added to 70 μL of assay reaction buffer. […] The enzymatic reaction was performed for 25 min at 37° C. in a shaking water bath. […] After the precipitation was completed (after at least 30 min on ice), the mixture was separated by filtration through GF/B glass fiber filters using a cell harvester (M-48, Brandel, Gaitherburg, Md., USA). After washing each reaction vial three times with 400 μl of cold (4° C.) demineralized water, 5 ml of the scintillation cocktail (ULTIMA Gold XR, PerkinElmer, MA, USA) was added and radioactivity was measured by scintillation counting (TRICARB 2900 TR, Packard/PerkinElmer; counting efficacy: 49-52%). Two controls were included and measured as duplicates. One reaction was performed without the inhibitor resulting in 100% enzyme activity (positive control) and one was incubated without the inhibitor and the enzyme and served as background control. The resulting data were subtracted from the background and were normalized with to the positive control. The results were plotted, and concentration-inhibition curves were fitted with GraphPad Prism 5 (GraphPad Software, La Jolla, USA).
After 30 min, the precipitation was filtered through GF/B glass fiber filters (M-48, Brandel, Gaithersburg, Md., USA). After washing three times, 4 mL of the scintillation cocktail ULTIMA Gold XR was added and then quantified by scintillation counting (TRICARB 2900 TR, Packard/PerkinElmer). Three separate inhibition assays were performed in triplicate, concentration-response curves were fitted, and K, values were calculated.

[2] = target: T2, recombinant soluble human CD73 (Homo sapiens, UniProt P21589); assay: Radiometric CD73 inhibition assay, recombinant soluble human CD73; assay type: biochemical; conditions: Table 6; for Ki: human soluble CD73, read-out: Ki at hCD73
T2 construct: 6xHis (C); secretion signal peptide of vector pACGP67B (N); made in house; host or cells: Sf9 insect cells (baculovirus)
T2 sequence (P21589 28-549): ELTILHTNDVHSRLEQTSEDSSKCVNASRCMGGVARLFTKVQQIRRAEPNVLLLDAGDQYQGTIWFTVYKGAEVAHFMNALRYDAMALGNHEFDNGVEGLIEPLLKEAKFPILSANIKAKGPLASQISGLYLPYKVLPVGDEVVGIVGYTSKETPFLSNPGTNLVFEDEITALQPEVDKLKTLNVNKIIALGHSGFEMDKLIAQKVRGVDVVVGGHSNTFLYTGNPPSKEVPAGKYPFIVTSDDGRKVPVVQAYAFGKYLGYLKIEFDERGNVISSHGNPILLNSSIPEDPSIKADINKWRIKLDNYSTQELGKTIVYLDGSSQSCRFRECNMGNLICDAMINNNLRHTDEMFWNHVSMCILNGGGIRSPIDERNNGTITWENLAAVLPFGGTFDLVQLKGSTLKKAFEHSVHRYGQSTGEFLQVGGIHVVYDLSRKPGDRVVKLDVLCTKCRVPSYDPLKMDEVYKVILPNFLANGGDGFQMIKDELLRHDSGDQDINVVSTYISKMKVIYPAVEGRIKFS
Procedure: (§1) The cDNA for the soluble human CD73 (Genbank accession no. NM_002526) was obtained from Prof. Dr. Norbert Sträter (University of Leipzig, Germany) (3). […] Sf9 insect cells were grown in Insect-[…] media (#: BE12-[…], Lonza, Switzerland) with 10 mg/l gentamicin and split at a ratio of 1:3 every fourth day. For transfection, cells were seeded into cell culture flasks (25 cm^2) at 60-70% confluence. 100 μl of cell medium and 1 μl of the vector DNA (1000 ng/μ1) were mixed with 2.5 μl of baculovirus genomic ProEasyTM vector DNA (AB vector, CA, USA) and combined with premixed 100 μl of cell medium and 8 μl of CellfectinTM II Reagent (Thermo Fisher Scientific, MA, USA). […] The cells were incubated for 30 min at rt, and for further 4 days at 27° C. Cells from the transfection procedure were detached from the bottom of the flasks and centrifuged for 5 min at 2000 g. 1.5 ml of the supernatant (viral stock) was added to 75 cm^2 cell culture flasks containing Sf9 cells (60-70% confluence), and the cells were incubated for four days at 27° C. Then 1.5 ml of the supernatant were taken and added to uninfected Sf9 cells in a 75 cm^2 flask. This was repeated five more times, using more cells and larger flasks after the third round of infections (150 cm^2 to which 3.0 ml of supernatant were added). The stock P8 was finally used for infection of the cells. For protein expression, 3 ml of the virus solution were used to infect 150 ml of cell media containing 2×10^6 cells/ml in a 500 ml Erlenmeyer flask, and they were incubated for 4 days at 27° C. with shaking (150 rpm). Then, cell suspensions were transferred to 50 ml falcon tubes and centrifuged at 15 min at 5000 g at 4° C. The supernatants were subjected to ultrafiltration using Amicon® Ultra-15, 10 kDa cut-off (Merck Millipore, MA, USA) at 5000 g for 15-30 min at 4° C. The concentrated protein was purified with HisPurTM Ni^2+-NTA spin columns (#: 88226, Thermo Fisher Scientific, MA, USA). The elution of the columns was performed as recommended in the instruction manual with adjusting the incubation time for protein binding to 1 h at 4° C. with an end-over-end mixer and an additional incubation step of 5 min with the elution buffer before eluting. Eluates were pooled and dialyzed (Membra-Cer, 14 kDa cut-off, 250 mm×44 mm×0.02 mm; Carl Roth, Germany) at 4° C. in 25 mM Tris, pH 7.4, with a volume adjusted to 40 times the volume of the elution fraction. […] The enzyme was aliquoted and stored at -80° C. until use.

[3] = test system: recombinant soluble human CD73; assay: as above; assay type: biochemical; conditions: human vs rat CD73 Ki, Table 5
Procedure: as §1

[4] = Stability in aqueous solution; assay type: physicochemical; conditions: decomposes to UOPCP (4a)
Procedure: Cytidine derivatives varying at the 2′-position (7a and 7b), as well as at the 5-position (7c-e), were prepared as depicted in Scheme 2. […] The required nucleosides were prepared by either reacting cytidine (6a), 2′-deoxycytidine (6b), 5-fluorocytidine (6d) or 5-methylcytidine (6e) with respective alkoxyamino derivatives in pyridine^8 followed by phosphonylation reaction to afford compounds 9a-f, or by reacting cytidine (6a) with benzyloxyamine, followed by nucleophilic substitution at the 3-position and subsequent 5′-O-phosphonylation of the nucleosides to afford compounds 9h and 9i (Scheme 2). Furthermore, 3-deazauridine-5′-α,β-methylene-diphosphate (10), (S)-methanocarba-5′-α,β-methylene-diphosphate (11) and the ethyl ester of 2-thio-UDP (12) (7) were prepared to extend the exploration of SARs of the nucleotide analogs as CD73 inhibitors. All phosphonate-substituted nucleotides were purified to homogeneity by ion exchange chromatography followed by reverse phase C18 HPLC.

[5] = read-out: Ki ± SEM (nM), rat CD73, Table 3, recombinant soluble rat CD73, 5 μM [3H]AMP

Molecule	Ki [1, 5] [nM]	Ki [2] [µM]	other results
Nc1ccnc2c1ncn2[C@@H]1O[C@H](COP(=O)(O)CP(=O)(O)O)[C@@H](O)[C@H]1O [Compound 2e, 1-Deazaadenosine-5′-O-[(phosphonomethyl)phosphonic acid]]	> 1000	–	% inhibition at indicated concentration, rat CD73 ([1]; Table 3): 36%
Cn1c(=O)n([C@@H]2O[C@H](COP(=O)(O)CP(=O)(O)O)[C@@H](O)[C@H]2O)cc/c1=N/OCc1ccc(-c2cn(CCF)nn2)cc1 [Compound 120, N^4-(4-(1-(2-Fluoroethyl)-1H-1,2,3-triazol-4-yl)benzyloxy)-3-methylcytidine-5′-α,β-methylenediphosphate triethylammonium salt]	–	0.000627 ± 9.9e-05	–
O=c1[nH]c(=NOCc2ccccc2)c(F)cn1C1OC(COP(=O)(O)CP(=O)(O)O)C(O)C1O (stereo not shown) [Compound 9g, N^4-[O-(4-Benzyloxy)]-5-fluoro-cytidine-5′-O-[(phosphonomethyl)phosphonic acid]]	–	–	potency at human CD73 as compared to the rat enzyme [3]: 5 fold
C#Cc1ccc(CO/N=c2/ccn([C@@H]3O[C@H](COP(=O)(O)CP(=O)(O)O)[C@@H](O)[C@H]3O)c(=O)n2C)cc1 [Compound 114, N^4-(4-Ethynylbenzyloxy)-3-methyleytidine-5′-α,β-methylenediphosphate triethylammonium salt]	–	0.000664 ± 8.9e-05	–
Nc1ncnc2c1ccn2[C@@H]1O[C@H](COP(=O)(O)CP(=O)(O)O)[C@@H](O)[C@H]1O [Compound 2g, 7-Deazaadenosine-5′-O-[(phosphonomethyl)phosphonic acid]]	88.6 ± 4	–	–
Cn1c(=O)n([C@@H]2O[C@H](COP(=O)(O)CP(=O)(O)O)[C@@H](O)[C@H]2O)cc/c1=N/OCc1cccc(C(F)(F)F)c1 [Compound 107, N^4-((3-Trifluoromethyl)benzyloxy)-3-methyleytidine-5′-α,β-methylenediphosphate triethylammonium salt]	–	0.00144 ± 9e-05	–
O=C(Nc1ccn([C@@H]2O[C@H](COP(=O)(O)CP(=O)(O)O)C(O)C2O)c(=O)n1)c1ccccc1 (stereo partly shown) [Compound 7f, 4-Benzoylcytidine-5′-O-[(phosphonomethyl)phosphonic acid]]	–	–	decomposition in aqueous solution [4]: rapid decomposition; decomposition in aqueous solution ([4]; listed as 71): decomposition in aqueous solution
Nc1nccc2c1ncn2[C@@H]1O[C@H](COP(=O)(O)CP(=O)(O)O)[C@@H](O)[C@H]1O [Compound 2f, 3-Deazaadenosine-5′-O-[(phosphonomethyl)phosphonic acid]]	> 1000	–	% inhibition at indicated concentration, rat CD73 ([1]; Table 3): 36%
CCN(CC)CC.CCN(CC)CC.O=c1ccn([C@H]2[C@H](O)[C@H](O)C3(COP(=O)(O)CP(=O)(O)O)C[C@H]23)c(=O)[nH]1 (stereo partly drawn) [Compound 121, (((((2R,3S,4R,5S)-4-(2,4-Dioxo-3,4-dihydropyrimidin-1(2H)-yl)-2,3-dihydroxy-1λ^5-bicyclo[3.1.0]hexan-1-yl)methoxy)(hydroxy)phosphoryl)methyl)phosphonic Acid Triethylammonium Salt]	–	–	inhibition of hCD73 ([2]; at 50 μM): 35% inhibition
CCn1c(=O)n([C@@H]2O[C@H](COP(=O)(O)CP(=O)(O)O)[C@@H](O)[C@H]2O)cc/c1=N/OCc1ccccc1 [Compound 9i, N^4-[O-(4-Benzyloxy)]-3-ethyl-cytidine-5′-O-[(phosphonomethyl)phosphonic acid]]	–	–	Ki [1]: 262 ± 46 nM
Cn1c(=O)n([C@@H]2O[C@H](COP(=O)(O)CP(=O)(O)O)[C@@H](O)[C@H]2O)cc/c1=N/OCc1cccc(Cl)c1 [Compound 106, N^4-(3-Chlorobenzyloxy)-3-methylcytidine-5′-α,β-methylenediphosphate triethylammonium salt]	–	0.00161 ± 9e-05	–
Nc1ncnc2c1ncn2[C@@H]1O[C@H](COP(=O)(O)CP(=O)(O)O)[C@@H](O)[C@H]1O [I, reference compound]	167 ± 53	–	–
(((((2R,3S,4R,5S)-4-((Z)-4-(((4-Chlorobenzyl)oxy)imino)-3-methyl-2-oxo-3,4-dihydropyrimidin-1(2H)-yl)-2,3-dihydroxy-1V-bicyclo[3.1.0]hexan-1-yl)methoxy)(hydroxy)phosphoryl)methyl)phosphonic Acid Triethylammonium Salt [Compound 122]	–	0.0592 ± 0.00558	–
